GI50 and TGI data for 18 compounds are collected here from PubChem BioAssay (NCI).

Experiment in all cases: DTP human tumour cell line panel, 48 h
Assay [1] has as its system 786-0 renal.
Assay [2] relates to KM12 colon.
Assay [3] relates to MDA-MB-231 breast.
Assay [4] concerns OVCAR-4 ovarian.
Assay [5] deals with RPMI-8226 leukemia.
Assay [6] has as its system SK-MEL-28 melanoma.
For assay [7], the system named is SNB-19 CNS.
Assay [8] has as its system T-47D breast.
Assay [9] concerns TK-10 renal.
In assay [10] the test system is UACC-62 melanoma.

“And” between values parts separate entries of the source, which are not always exact repeats. Equal values may be shown once.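 A five-concentration, 48-hour dose response in 96-well plates underlies each endpoint, interpolated linearly between surrounding concentrations. GI50: concentration for 50% inhibition of growth. TGI is the concentration that stops growth completely.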

Usually GI50 stands for the concentration at which growth is held to half of that of the control. The term TGI denotes the concentration giving total growth inhibition. Read a high TGI as lower sensitivity of the cells. `C[C@]12CC/C(=N\O)C[C@@H]1CC[C@@H]1[C@@H]2CC[C@]2(C)/C(=N/O)CC[C@@H]12`: the GI50 in assay [1] was 26.7 µM; in assay [2], 20.9 µM; in assay [3], 26 µM; in assay [4], 56.8 µM; in assay [5] it was 15.9 µM; in assay [6] it was over 100 µM. For the same compound, the GI50 is 79.5 µM in [7], over 100 µM in assay [8], 32.1 µM in [9] and 35.6 µM in assay [10]. For the same compound, the TGI is 72.3 µM in assay [1]; 47.4 µM in assay [2]; 73.8 µM in assay [3]; over 100 µM in assay [4]; 52 µM in [5]; over 100 µM in assay [6]. The TGI in assay [7], in assay [8], in [9] and in assay [10] was over 100 µM throughout.
For the compound `N#Cc1c(N)n(C2OC(CO)C(O)C2O)c2ncnc(N)c12` (stereo not drawn), the concentration for total growth inhibition (TGI) in [1] was 5.55 µM; in assay [2] it was 1.98 µM; in assay [3] it was over 8.22 µM; in [4] it was over 100 µM; in assay [5], 3.59 µM; in assay [6], 0.432 µM. Also, the TGI in [7] was over 84.2 µM; in assay [8], 0.221 µM; in assay [10], 0.0941 µM.
Take `COc1ccc2c3c(ccc2c1)NC(C(=O)O)CC3` (stereo not drawn): the TGI in assay [1] is over 100 µM; in assay [2], over 100 µM; in assay [3], over 100 µM; in assay [4], over 100 µM; in assay [5], 54.1 µM; in assay [6], over 100 µM. The TGI was over 100 µM in assay [7], 79.1 µM in [8], over 100 µM in assay [9] and over 100 µM in assay [10].
Take `CN(C)C(=O)C(NCCO)c1ccccc1` (stereo not drawn): the TGI in [1] was over 100 µM; in assay [2], over 100 µM; in assay [3] it was over 100 µM; in [4], over 100 µM; in assay [5], 59.7 µM; in assay [6], over 100 µM. The total growth inhibition concentration (TGI) in assay [7], in assay [8], in assay [9] and in [10] was over 100 µM in each case.
For `COc1ccc2c(c1)O/C(=C\c1ccc([N+](=O)[O-])o1)C2=O`, the GI50 was 1.99 µM in assay [1]; 1.37 µM in [2]; 2.03 µM in assay [3]; 1.87 µM in assay [4]; 0.367 µM in assay [5]; 2.17 µM in assay [6]. In addition, the GI50 is 3.09 µM in assay [7], 1.4 µM in assay [8], 2.13 µM in assay [9] and 1.59 µM in [10]. For the same compound, the TGI in [1] was 4.83 µM; in assay [2] it was 3.42 µM; in [3] it was 6.63 µM; in [4] it was 6.5 µM; in [5], 2.33 µM; in assay [6] it was 5.02 µM. Moreover, the total growth inhibition concentration (TGI) in assay [7] was over 100 µM; in assay [8] it was 8.83 µM; in assay [9] it was 9.49 µM; in assay [10] it was 3.54 µM.
Regarding `Nc1nc(=O)c2[nH]cnc2n1O`, the TGI in [1], in [2], in [3], in assay [4], in [5] and in [6] was over 100 µM each time. Also, the concentration for total growth inhibition (TGI) in [7], in assay [8], in assay [9] and in assay [10] was over 100 µM throughout.
Regarding `OCCNC(=S)Nc1ccc(-c2nc(N3C[C@H]4CC[C@@H](C3)O4)c3cccn3n2)cc1`, the GI50 in assay [1] is 0.0677 µM; in assay [2], 0.0987 µM; in assay [3], 0.0583 µM; in assay [4] it was 0.0389 µM; in [5], 0.0371 µM; in [6], 0.028 µM. In addition, the GI50 is 0.189 µM in [7], under 0.01 µM in assay [8], 0.0269 µM in [9] and 0.018 µM in [10]. In addition, the TGI in assay [1] came to 12.8 µM; in [2] it was 12.6 µM; in assay [3] it was 6.57 µM; in assay [4] it was 0.63 µM; in assay [5], 1.47 µM; in assay [6], 0.499 µM. Also, the TGI in assay [7] was found to be 13.2 µM; in [8], 0.0389 µM; in assay [9], 0.399 µM; in [10] it was 0.194 µM.
In the case of `COc1ccc(Nc2[nH]n(C3=Nc4ccccc4Sc4ccccc43)c(=O)c2C#N)cc1`, the GI50 in [1] is 2.67 µM; in assay [2], 1.64 µM; in assay [3] it was 1.39 µM; in assay [4], 0.803 µM; in assay [5], 1.59 µM; in assay [6], 3.87 µM. For the same compound, the GI50 in assay [7] was 3.53 µM; in assay [8], 0.696 µM; in [9], 3.81 µM; in assay [10] it was 1.21 µM. The TGI in assay [1] is 22.3 µM; in assay [2], 11.3 µM; in assay [3], 11.9 µM; in assay [4], over 100 µM; in assay [5] it was over 100 µM; in assay [6], over 100 µM. Further, the TGI in assay [7] was over 100 µM; in assay [8], 9.22 µM; in [9], 41 µM; in [10] it was 11 µM.
In the case of `COC1=CC(=O)c2c(O)c3c(c(O)c2C1=O)OC1(Oc2c(cc4cc(C)oc(=O)c4c2O)CC1O)C3O` (stereo not drawn), the TGI in assay [1] was over 100 µM; in assay [2], over 100 µM; in assay [3], 54.5 µM; in assay [4], 67.5 µM; in assay [5], over 100 µM; in assay [6], over 100 µM. The TGI in assay [7] is 62.4 µM; in assay [8], over 100 µM; in [9], over 100 µM; in assay [10], over 100 µM.
As for `COc1ccc(-c2c(-c3cc4c(c(OC)c3OC)OCO4)noc2N)cc1`, the GI50 in [1] was 0.49 µM; in [2] it was 0.179 µM; in [3], 2.32 µM; in assay [4] it was 0.671 µM; in assay [5], 0.503 µM; in [6] it was 0.459 µM. Besides, the GI50 in assay [7] was 0.661 µM; in assay [8], 0.568 µM; in [9], 0.343 µM; in assay [10] it was 0.534 µM. Moreover, the TGI in [1] is 41.6 µM; in assay [2], over 100 µM; in [3], over 62.9 µM; in [4] it was over 100 µM; in assay [5], 50.9 µM; in assay [6], over 100 µM. Moreover, the TGI in [7], in [8], in [9] and in [10] was over 100 µM in each case.
As for `CC(C)(C)n1nc(C2CC2)cc1NC(=O)Nc1ccc(Cl)cc1`, the TGI in [1], in assay [2], in [3], in assay [4], in [5] and in [6] was over 100 µM throughout. The TGI in [7], in [8], in [9] and in assay [10] was over 100 µM in each case.
In the case of `Cc1ccccc1NC(=O)N/C(N)=N/c1nc(C)c(C)s1`, the GI50 in assay [1] is 0.652 µM; in [2], 0.206 µM; in [3] it was 1.52 µM; in assay [4], 48 µM; in assay [5] it was 0.39 µM; in [6], 23.7 µM. The GI50 in [7] was 0.283 µM; in assay [8], 0.448 µM; in assay [10], 0.179 µM. The TGI in assay [1], in assay [2], in [3], in [4], in [5] and in assay [6] was over 100 µM each time. Further, the TGI in assay [7] was 52.7 µM; in assay [8], over 100 µM; in assay [9], over 100 µM; in assay [10] it was over 100 µM.
`CC1=CC[C@@H]2[C@@H](CC[C@@]2(C)O)C(C)(C)[C@H]1CC[C@@H]1[C@@]2(C)CC[C@@H](O)C(C)(C)O[C@@H]2CC[C@]1(C)O`: the TGI in [1] is 34.8 µM; in [3], 34.5 µM; in [4], over 100 µM; in assay [5], 52.3 µM; in assay [6], 35.7 µM; in assay [7], 46.2 µM. The figures for the TGI in assay [8], in assay [9] and in assay [10] were over 100 µM, over 100 µM and 31.9 µM, respectively.
`C[C@@]1([C@H](OC(=O)c2cccc3ccccc23)C(N)=O)CO1`: the GI50 in assay [1] is 1.84 µM; in [2], 2.09 µM; in assay [3], 1.27 µM; in assay [4], 4.66 µM; in assay [5], 0.668 µM; in [6], 3.08 µM. The GI50 in [7] is 5.75 µM; in assay [8], 5.31 µM; in [9] it was 3.6 µM; in assay [10], 0.452 µM. In addition, the TGI was 14.6 µM in assay [1]; 10.8 µM in assay [2]; 9.12 µM in assay [3]; over 76.6 µM in [4]; 9.04 µM in assay [5]; 15.2 µM in assay [6]. The total growth inhibition concentration (TGI) was over 37.5 µM in [7], 24.8 µM in assay [8], 14.8 µM in [9] and 2.24 µM in assay [10].
As for `CC(C)C[C@H](NC(=O)[C@H](Cc1ccccc1)NC(=O)c1cnccn1)B(O)O`, the concentration for 50% growth inhibition (GI50) was 0.00245 µM in assay [1]; 0.00229 µM in assay [2]; < 0.0118 µM and 0.00177 µM in assay [3]; < 0.0113 µM and 0.00315 µM in assay [4]; 0.00085 µM in [5]; 0.00104 µM in [6]. Further, the GI50 in assay [8] is 0.00167 µM; in assay [9], 0.00164 µM; in assay [10], 0.00149 µM. In addition, the TGI was 0.381 µM and 0.0967 µM and 0.411 µM in assay [1]; 0.0367 µM and 0.00812 µM in [2]; 0.00541 µM in assay [3]; 0.179 µM in [4]; < 0.01 µM and 0.00411 µM in [8]; < 0.0693 µM and 0.0129 µM in assay [9]. For the same compound, the TGI in [10] was < 0.0168 µM and 0.00498 µM.
On to `C=C(c1ccc(OC)c(/C=C/C(=O)c2cc(OC)c(OC)c(OC)c2)c1)c1cc(OC)c(OC)c(OC)c1`, for which the GI50 was 1.68 µM in assay [1]; 1.16 µM in [2]; 0.995 µM in [3]; 3.7 µM in assay [4]; 0.453 µM in assay [5]; 1.52 µM in assay [6]. In addition, the GI50 in assay [8] is 1.38 µM; in assay [9], 2.59 µM; in [10], 0.498 µM. Besides, the TGI was 3.7 µM in assay [1]; 2.72 µM in assay [2]; over 100 µM in [3]; over 100 µM in [4]; 3.06 µM in assay [5]; 3.45 µM in assay [6]. In addition, the TGI in [8] is 6.12 µM; in [9] it was 7.9 µM; in [10] it was 2.16 µM.
As for `COc1ccc(-c2cc(=O)c3c(OC)c(O)c(OC)cc3o2)cc1`, the TGI is over 100 µM in [1]; over 100 µM in assay [3]; over 100 µM in assay [4]; 99.3 µM in assay [5]; over 100 µM in assay [6]; over 100 µM in assay [7]. Moreover, the figures for the TGI in assay [8], in [9] and in [10] were over 100 µM, 94 µM and over 100 µM, respectively.
Turning to `Cc1c(C)n(CC(O)CNC2CCCCC2C)c2ccccc12` (stereo not drawn), the GI50 is 12.5 µM in assay [1]; 15.3 µM in assay [2]; 6.44 µM in assay [3]; 12 µM in assay [4]; 9.48 µM in [5]; 14 µM in assay [6]. The GI50 in assay [7] is 15.5 µM; in assay [8], 12.8 µM; in assay [10] it was 14.8 µM. Besides, the total growth inhibition concentration (TGI) stood at 25.6 µM in assay [1]; 28.9 µM in assay [2]; 20.5 µM in assay [3]; 24.4 µM in assay [4]; 28.6 µM in assay [5]; 27.4 µM in assay [6]. Besides, the TGI in [7] was determined as 30.9 µM; in [8] it was 29.8 µM; in assay [10], 29 µM.
